Measured values from US9879036B2, “Mitochondrial aldehyde dehydrogenase-2 binding compounds and methods of use thereof” (Aviv Therapeutics, Inc., priority 2014, dated 2018).

Assays:
[1] = system: carrageenan inflammatory pain model in male C57BL/6 mice; test: Carrageenan inflammatory pain model, Von Frey paw withdrawal threshold; assay type: in vivo; conditions: for contralateral paw withdrawal threshold / ipsilateral paw withdrawal threshold compared to vehicle: 180 minutes after carrageenan; for carrageenan-induced mechanical hyperalgesia: ipsilateral paw
Protocol: Mice are acclimated to the colony room and maintained on a 12 hour/12 hour light/dark cycle. To induce plantar sensitivity to tactile stimuli, a single injection of carrageenan is administered to the plantar hindpaw of the mice and withdrawal from a mechanical stimulus is measured by applying Von Frey filaments of ascending bending force to the plantar surface of the hind paws.
A compound of formula (I) is dissolved and administered subcutaneous (sc) or orally (po) prior to carrageenan administration and after carrageenan injections. Data is analyzed by analysis of variance (ANOVA) followed by post-hoc comparisons with Fisher Tests when appropriate.
The analgesic effects of AC151 and Alda-1 were evaluated using the carrageenan inflammatory pain model in male C57BL/6 mice. The mice were administered AC151, Alda-1 and vehicle (saline) as a control.
Male C57BL/6J mice from Jackson Laboratories (Bar Harbor, Me.) were used in this study. Mice were received at 6-7 weeks of age. Upon receipt, mice were assigned unique identification numbers (tail marked) and were group housed in OPTImice cages. All animals were acclimated to the colony room for at least 1 week prior to testing. During the period of acclimation, animals were examined on a regular basis, handled, and weighed to assure adequate health and suitability. Animals were maintained on a 12 hour/12 hour light/dark cycle. The room temperature was maintained between 20° C. and 23° C. with a relative humidity maintained between 30% and 70%. Chow and water were provided ad libitum for the duration of the study. All testing was performed during the animal's light cycle phase.
To induce plantar sensitivity to tactile stimuli, a single injection of carrageenan was administered to the plantar hindpaw of the mice and three hours later withdrawal from a mechanical stimulus is measured by applying Von Frey filaments of ascending bending force (0.02 to 6 grams) to the plantar surface of the hind paws (ipsilateral and contralateral to injection). A positive response was defined as withdrawal from the Von Frey filament. Confirmation of threshold is tested by examining the filament above and below the withdrawal response. A significant decrease in withdrawal threshold is interpreted as mechanical hyperalgesia. Prior to drug or carrageenan treatment, baseline Von Frey measures were taken and used to balance animals across treatment groups.
Alda-1 (1, 2, and 5 mg/kg) was dissolved in 50% DMSO/50% PEG and administered subcutaneous (sc), 15 min prior to carrageenan administration and twice again 30 and 150 minutes after carrageenan injections at a dose volume of 5 ml/kg. AC151 (40 and 80 mg/kg) was dissolved in saline and administered orally (po), 30 min after carrageenan administration. For one group, AC151 (80 mg/kg) was administered 15 min prior to carrageenan injections. The dose volume for this compound was 10 ml/kg.
The initial injections of AC151 (80 mg/kg) and Alda-1 were made 15 min prior to carrageenan injections. Then, a single 3.5 μl injection of 3% carrageenan was administered to the right plantar hindpaw. Alda-1 was then administered twice, once 30 minutes after carrageenan and again 150 minutes post-carrageenan. In separate treatment groups AC151 (40 mg/kg and 80 mg/kg) as well as saline vehicle were administered 30 minutes after carrageenan injection. Von Frey measures were taken 180 minutes after carrageenan injection.
Data were analyzed by analysis of variance (ANOVA) followed by post-hoc comparisons with Fisher Tests when appropriate. An effect was considered significant if p<0.05. […].

[2] = target: T1, ALDH2 (Mus musculus, UniProt P47738); test: ALDH2 activity of muscle tissue in PAD mice; assay type: in vivo; conditions: osmotic pump for 28 days
T1 construct: In this study we have also determined the ALDH2 activity in muscle tissue; from tissue; host or cells: skeletal muscle of WT mice with femoral artery occlusion
T1 sequence (P47738 20-519): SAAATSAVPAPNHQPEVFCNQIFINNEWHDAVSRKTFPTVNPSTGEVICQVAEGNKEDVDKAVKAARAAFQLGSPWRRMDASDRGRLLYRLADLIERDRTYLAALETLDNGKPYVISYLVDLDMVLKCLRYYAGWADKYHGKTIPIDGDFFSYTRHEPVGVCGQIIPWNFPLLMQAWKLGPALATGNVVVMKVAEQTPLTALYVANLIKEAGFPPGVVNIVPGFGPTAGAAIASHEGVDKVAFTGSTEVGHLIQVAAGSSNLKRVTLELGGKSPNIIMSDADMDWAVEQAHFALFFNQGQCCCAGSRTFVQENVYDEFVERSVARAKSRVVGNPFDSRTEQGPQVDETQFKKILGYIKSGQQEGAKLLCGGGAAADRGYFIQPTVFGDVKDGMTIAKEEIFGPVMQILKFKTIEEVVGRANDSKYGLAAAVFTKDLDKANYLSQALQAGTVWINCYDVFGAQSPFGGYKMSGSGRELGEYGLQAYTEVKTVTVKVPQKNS
Protocol: (§1) The animals, WT mice age 18-22 weeks, were anesthetized with an intraperitoneal (IP) injection of esketamine (100 mg/ml) dose 80-100 mg/kg and xylazine (20 mg/ml) dose 4-6 mg/kg. Hair was entirely removed from the surgical area and a longitudinal incision was made beginning at the inguinal crease along the femoral vessels. The connective tissue sheet between the femoral artery and vein was then carefully dissected and an opening between the femoral artery and vein was made. Artery ligation thread was then used to occlude the femoral artery using triple surgical knots. The incision was then closed and the animals were administered a single dose of buprenorphine (0.1 mg/kg) subcutaneously to control ischemic pain.
(§2) The animals under permanent femoral artery occlusion at day zero, were treated with ALDH2 activators, Alda-1 and AC112, via osmotic pump for 28 days. The effects of the compounds of the present invention on functional capacity were assessed in mice using treadmill exercise in a metabolic chamber.
In this study we have also determined the ALDH2 activity in muscle tissue.

[3] = system: PAD wild type mice; test: Limb ischemia model for peripheral arterial disease (PAD); assay type: in vivo; conditions: osmotic pump for 28 days
Protocol: Mice are anesthetized and hair is entirely removed from the surgical area. A longitudinal incision is inguinal crease along the femoral vessels and the connective tissue sheet between the femoral artery and vein is carefully dissected. An opening between the femoral artery and vein is made and the femoral artery is occluded using triple surgical knots. The incision is then closed.
The animals under permanent femoral artery occlusion are treated with compounds of formula (I) and the effects of the compounds on functional capacity is assessed in mice using treadmill exercise in a metabolic chamber.
The limb ischemia-murine animal model was utilized as a surrogated model for peripheral arterial disease as described in Nature Protocols, 4, 1737-1748 (2009). (Limbourg, A., et. als., Evaluation of postnatal arteriogenesis and angiogenesis in a mouse model of hind-limb ischemia, Nature Protocols, 4, 1737-1748 (2009)). All experiments were run according to national and institutional regulations concerning the use of animals for research purposes and permissions to carry out experiments have to be obtained.
as §1, §2

[4] = target: T2, ALDH2 (Homo sapiens, UniProt P05091); test: ALDH2 activity with 20 μM of the compound (Table 3); assay type: biochemical; conditions: 20 μM compound
T2 construct: His-tag (N); made in house; host or cells: E. coli BL21
T2 sequence (P05091 18-517): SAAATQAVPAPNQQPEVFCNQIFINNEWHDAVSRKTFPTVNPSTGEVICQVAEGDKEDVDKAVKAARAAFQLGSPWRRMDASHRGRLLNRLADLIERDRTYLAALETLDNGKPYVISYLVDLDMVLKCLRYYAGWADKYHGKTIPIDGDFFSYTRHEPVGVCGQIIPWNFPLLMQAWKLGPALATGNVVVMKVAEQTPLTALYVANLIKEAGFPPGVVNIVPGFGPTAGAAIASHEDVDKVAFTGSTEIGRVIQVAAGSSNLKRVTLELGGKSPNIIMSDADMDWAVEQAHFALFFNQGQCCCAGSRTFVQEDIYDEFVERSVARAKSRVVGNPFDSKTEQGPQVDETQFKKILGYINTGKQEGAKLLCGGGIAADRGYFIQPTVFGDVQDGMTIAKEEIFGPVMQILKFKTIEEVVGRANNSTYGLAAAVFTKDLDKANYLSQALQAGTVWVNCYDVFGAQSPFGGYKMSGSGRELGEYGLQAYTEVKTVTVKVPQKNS
Procedure, shortened: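 Compound was tested at 20 μM. ALDH2 oxidation of acetaldehyde with NAD+ cofactor was followed spectrophotometrically as NADH accumulation at 340 nm. Activity is expressed relative to the enzyme's baseline activity, taken as 100%.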

## O=C(NCc1ccc2c(c1)OCO2)c1c(Cl)cccc1Cl [Alda-1, N-(1,3-Benzodioxol-5-ylmethyl)-2,6-dichlorobenzamide, reference compound]
[1]
  contralateral paw withdrawal threshold: No treatment effects
  carrageenan-induced mechanical hyperalgesia: attenuated carrageenan-induced mechanical hyperalgesia
[1]; Alda-1 5 mg/kg sc, three doses
  ipsilateral paw withdrawal threshold compared to vehicle: significantly increased paw withdrawal threshold

## COc1ccc(CNC(=O)c2cc(-c3ncccc3CO)ccc2OCC(C)C)cc1F [AC112]
[2]
  ALDH2 activity of muscle tissue: increased the ALDH2 activity of muscle tissue
[3]
  pain threshold: improve pain threshold
  skeletal muscle resistance to fatigue (contractility measured ex vivo): improve the skeletal muscle resistance to fatigue
[3]; WT mice
  PAD-induced skeletal muscle atrophy: minimizes PAD-induced skeletal muscle atrophy
[3]; treadmill
  running distance: improve
  running time: improve
[4]
  activity at 20 µM: > 250%

## COc1ccc(CNC(=O)c2cc(-c3ncccc3COC(=O)[C@H](N)C(C)C)ccc2OCC(C)C)cc1F [AC151]
[1]
  contralateral paw withdrawal threshold: No treatment effects
  carrageenan-induced mechanical hyperalgesia: attenuated carrageenan-induced mechanical hyperalgesia
[1]; AC151 40 and 80 mg/kg po (all groups)
  ipsilateral paw withdrawal threshold compared to vehicle: significantly increased paw withdrawal threshold
